This is an account of results in article PMC9101684, “Hempseed (Cannabis sativa) Peptide H3 ([sequence]) Exerts Cholesterol-Lowering Effects in Human Hepatic Cell Line” (Nutrients, 2022).

Data set [1] has as its system Caco-2 cells. The following applies: differentiated Caco-2; cited from earlier work. The method, then:
CVD is a multifactorial pathology in which oxidative and inflammatory status as well as hypercholesterolemia are among the main risk factors. […] To achieve this goal, a deeper study was carried out for characterizing the potential effect of peptide H3 o ...

Data set [2] has as its target T1, HMGCoAR (catalytic domain) (Homo sapiens, UniProt P04035).
T1 construct: HMGCoAR (catalytic domain) (2 µL); purchased Sigma-Aldrich
T1 sequence (P04035 426-888 limits assumed): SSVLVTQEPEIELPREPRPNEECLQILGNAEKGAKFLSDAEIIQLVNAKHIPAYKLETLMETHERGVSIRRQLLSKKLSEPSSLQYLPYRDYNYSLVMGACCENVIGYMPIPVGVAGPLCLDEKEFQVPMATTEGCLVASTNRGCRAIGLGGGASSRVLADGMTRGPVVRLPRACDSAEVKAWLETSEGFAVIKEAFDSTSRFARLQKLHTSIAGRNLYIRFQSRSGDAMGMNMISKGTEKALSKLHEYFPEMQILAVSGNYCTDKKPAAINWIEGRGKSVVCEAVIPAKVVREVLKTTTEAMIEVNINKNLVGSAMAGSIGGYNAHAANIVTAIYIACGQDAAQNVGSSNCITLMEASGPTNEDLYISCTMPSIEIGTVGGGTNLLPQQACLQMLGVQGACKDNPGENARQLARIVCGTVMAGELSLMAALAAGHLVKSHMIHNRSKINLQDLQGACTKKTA
Description: HMGCoAR activity assay (NADPH oxidation, absorbance 340 nm). Type of data set: biochemical. The following applies: purified catalytic domain of HMGCoAR; H3 10-1000 μM; 37 °C; absorbance 340 nm at 0 and 10 min; three independent experiments in triplicate.

The subject of data set [3] is HepG2 cells. Description: MTT assay, HepG2 cell viability. The class given is cell-based, human. The note with it: 48 h. As for the experimental part: A total of 3 × 10^4 HepG2 cells/well were seeded in 96-well plates and treated with peptide H3 (0.00001, 0.0001, 0.001, 0.01, 0.1, and 1.0 mM) or vehicle (H2O) in complete growth media at 37 °C for 48 h under 5% CO2 atmosphere. MTT experiments were performed using the protocol reported in the Supplementary Materials.
HMGCoAR were provided in the HMGCoAR Assay Kit (Sigma Aldrich SRL, Milan, Italy). The experiments were carried out following the manufacturer instructions at 37 °C. […] Subsequently, the samples were mixed and the absorbance at 340 nm read by the microplate reader Synergy H1 […]
vehicle (H2O) in complete growth media for at 37 °C under 5% CO2 atmosphere for 48 h. […] After 5 min of slow shaking, the absorbance at 575 nm was read on the Synergy H1 fluorescence plate reader (Biotek, Bad Friedrichshall, Germany). […]
For the experiments, a total of 3 X 10 4 HepG2 cells/well were seeded in 96-well plates. […] The reaction was stopped with 2 M H2SO4 and then the absorbance at 450 nm was measured using the microplate reader Synergy H1 (Winooski, VT, USA). After the read, cells were stained by adding 1 X Janus Green stain, incubating for 5 min at RT. […]
Afterward 100 µL 0.5 M HCl for well were added and incubated for 10 min. After 10 min shaking, the OD at 595 nm was measured using the microplate reader Synergy H1 (Winooski, VT, USA). […]

pIC50: −log10 of the molar value. Where no end group is shown, it is not given here.

For the sequence IGFLIIWV [H3], the intestinal trans-epithelial transport entry in data set [1] was “transported intact by differentiated Caco-2”. This sequence gave a pIC50 in data set [2] of 4.23. Further, the reduced cell viability in data set [3] (1 mM H3, mean ± S.D. of three experiments in triplicate, Figure S1) was found to be 19.63 ± 0.59%. The “effect on HepG2 viability” value in data set [3] (up to 100 µM, versus control cells, three experiments in triplicate) is “no effect on HepG2 viability was observed up to 100 µM”.
